{"source": "ChEMBL document CHEMBL1201862", "about": "“PubChem BioAssay data set” (2004)", "test_in_all_cases": "NCI tumour cell line growth inhibition, 48 h", "key": {"[1]": {"test_system": "COLO 205"}, "[2]": {"test_system": "OVCAR-3"}, "[3]": {"test_system": "SN12C"}, "[4]": {"test_system": "KM12"}, "[5]": {"test_system": "OVCAR-4"}, "[6]": {"test_system": "MCF7"}, "[7]": {"test_system": "HL-60"}, "[8]": {"test_system": "A498"}, "[9]": {"test_system": "MDA-N"}, "[10]": {"test_system": "SK-MEL-28"}, "[11]": {"test_system": "OVCAR-5"}, "[12]": {"test_system": "T47D"}, "[13]": {"test_system": "K562"}, "[14]": {"test_system": "SNB-75"}, "[15]": {"test_system": "Malme-3M"}, "[16]": {"test_system": "U-251"}, "[17]": {"test_system": "UO-31"}, "[18]": {"test_system": "MOLT-4"}, "[19]": {"test_system": "SK-OV-3"}, "[20]": {"test_system": "HOP-62"}}, "note": "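96-well plates; 48 h exposure; 5 concentrations. Endpoints by linear interpolation between flanking doses. Not reached: highest tested concentration assigned. GI50 marks 50% less growth.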 Calls of active or inactive are those of the source. Cut-off read from the data, not from the text of the source: active = GI50 up to about 1.1 µM and inactive = higher.", "data": [{"smiles": "Cc1nc(N)nc(S)c1CCCNc1ccccc1", "values": [{"measurement": "GI50", "setting": "[1]", "result": "23.5 µM (inactive)"}, {"measurement": "GI50", "setting": "[2]", "result": "> 100 µM (inactive)"}, {"measurement": "GI50", "setting": "[3]", "result": "69.7 µM (inactive)"}, {"measurement": "GI50", "setting": "[4]", "result": "76.7 µM (inactive)"}, {"measurement": "GI50", "setting": "[5]", "result": "> 100 µM (inactive)"}, {"measurement": "GI50", "setting": "[6]", "result": "38 µM (inactive)"}, {"measurement": "GI50", "setting": "[7]", "result": "50 µM (inactive)"}, {"measurement": "GI50", "setting": "[8]", "result": "26.1 µM (inactive)"}, {"measurement": "GI50", "setting": "[9]", "result": "52 µM (inactive)"}, {"measurement": "GI50", "setting": "[10]", "result": "> 100 µM (inactive)"}, {"measurement": "GI50", "setting": "[11]", "result": "> 100 µM (inactive)"}, {"measurement": "GI50", "setting": "[12]", "result": "20.4 µM (inactive)"}, {"measurement": "GI50", "setting": "[13]", "result": "2.36 µM (inactive)"}, {"measurement": "GI50", "setting": "[14]", "result": "> 100 µM (inactive)"}, {"measurement": "GI50", "setting": "[15]", "result": "35.6 µM (inactive)"}, {"measurement": "GI50", "setting": "[16]", "result": "68.9 µM (inactive)"}, {"measurement": "GI50", "setting": "[17]", "result": "59.3 µM (inactive)"}, {"measurement": "GI50", "setting": "[18]", "result": "3.21 µM (inactive)"}, {"measurement": "GI50", "setting": "[19]", "result": "> 100 µM (inactive)"}, {"measurement": "GI50", "setting": "[20]", "result": "> 100 µM (inactive)"}]}, {"smiles": "Cc1ccc2nc(/C=N/c3ccc(Cl)cc3)cc(C)c2c1", "values": [{"measurement": "GI50", "setting": "[1]", "result": "1.16 µM (inactive)"}, {"measurement": "GI50", "setting": "[2]", "result": "9.84 µM (inactive)"}, {"measurement": "GI50", "setting": "[3]", "result": "5.21 µM (inactive)"}, {"measurement": "GI50", "setting": "[4]", "result": "0.269 µM (active)"}, {"measurement": "GI50", "setting": "[5]", "result": "20.3 µM (inactive)"}, {"measurement": "GI50", "setting": "[6]", "result": "4.7 µM (inactive)"}, {"measurement": "GI50", "setting": "[7]", "result": "1.14 µM (inactive)"}, {"measurement": "GI50", "setting": "[8]", "result": "> 80.4 µM (inactive)"}, {"measurement": "GI50", "setting": "[9]", "result": "1.3 µM (inactive)"}, {"measurement": "GI50", "setting": "[10]", "result": "13.4 µM (inactive)"}, {"measurement": "GI50", "setting": "[11]", "result": "3.67 µM (inactive)"}, {"measurement": "GI50", "setting": "[12]", "result": "2.54 µM (inactive)"}, {"measurement": "GI50", "setting": "[13]", "result": "0.147 µM (active)"}, {"measurement": "GI50", "setting": "[14]", "result": "17 µM (inactive)"}, {"measurement": "GI50", "setting": "[15]", "result": "2.44 µM (inactive)"}, {"measurement": "GI50", "setting": "[16]", "result": "8.47 µM (inactive)"}, {"measurement": "GI50", "setting": "[17]", "result": "0.381 µM (active)"}, {"measurement": "GI50", "setting": "[18]", "result": "1.12 µM (inactive)"}, {"measurement": "GI50", "setting": "[19]", "result": "16.8 µM (inactive)"}, {"measurement": "GI50", "setting": "[20]", "result": "2.26 µM (inactive)"}]}, {"smiles": "OC(CCN1CCN(CCOC(c2ccc(F)cc2)c2ccc(F)cc2)CC1)c1ccccc1", "note": "(stereo not given)", "values": [{"measurement": "GI50", "setting": "[1]", "result": "4.09 µM (inactive)"}, {"measurement": "GI50", "setting": "[2]", "result": "15.3 µM (inactive)"}, {"measurement": "GI50", "setting": "[3]", "result": "15.2 µM (inactive)"}, {"measurement": "GI50", "setting": "[4]", "result": "18.5 µM (inactive)"}, {"measurement": "GI50", "setting": "[5]", "result": "16.1 µM (inactive)"}, {"measurement": "GI50", "setting": "[6]", "result": "16.6 µM (inactive)"}, {"measurement": "GI50", "setting": "[7]", "result": "15.9 µM (inactive)"}, {"measurement": "GI50", "setting": "[8]", "result": "5.06 µM (inactive)"}, {"measurement": "GI50", "setting": "[9]", "result": "15.1 µM (inactive)"}, {"measurement": "GI50", "setting": "[10]", "result": "17.5 µM (inactive)"}, {"measurement": "GI50", "setting": "[11]", "result": "14.5 µM (inactive)"}, {"measurement": "GI50", "setting": "[12]", "result": "12.3 µM (inactive)"}, {"measurement": "GI50", "setting": "[13]", "result": "4.56 µM (inactive)"}, {"measurement": "GI50", "setting": "[14]", "result": "13.5 µM (inactive)"}, {"measurement": "GI50", "setting": "[15]", "result": "13.4 µM (inactive)"}, {"measurement": "GI50", "setting": "[16]", "result": "14.6 µM (inactive)"}, {"measurement": "GI50", "setting": "[17]", "result": "3.37 µM (inactive)"}, {"measurement": "GI50", "setting": "[18]", "result": "12.1 µM (inactive)"}, {"measurement": "GI50", "setting": "[19]", "result": "16.3 µM (inactive)"}, {"measurement": "GI50", "setting": "[20]", "result": "18 µM (inactive)"}]}, {"smiles": "CCCCCNC(=O)c1cc2cc(CCl)ccc2oc1=O", "values": [{"measurement": "GI50", "setting": "[1]", "result": "1.33 µM (inactive)"}, {"measurement": "GI50", "setting": "[2]", "result": "8.02 µM (inactive)"}, {"measurement": "GI50", "setting": "[3]", "result": "1.72 µM (inactive)"}, {"measurement": "GI50", "setting": "[4]", "result": "10.2 µM (inactive)"}, {"measurement": "GI50", "setting": "[5]", "result": "7.23 µM (inactive)"}, {"measurement": "GI50", "setting": "[6]", "result": "5.97 µM (inactive)"}, {"measurement": "GI50", "setting": "[7]", "result": "1.9 µM (inactive)"}, {"measurement": "GI50", "setting": "[8]", "result": "1.86 µM (inactive)"}, {"measurement": "GI50", "setting": "[9]", "result": "9.42 µM (inactive)"}, {"measurement": "GI50", "setting": "[10]", "result": "9.42 µM (inactive)"}, {"measurement": "GI50", "setting": "[11]", "result": "2.88 µM (inactive)"}, {"measurement": "GI50", "setting": "[12]", "result": "1.3 µM (inactive)"}, {"measurement": "GI50", "setting": "[13]", "result": "5.62 µM (inactive)"}, {"measurement": "GI50", "setting": "[14]", "result": "4.44 µM (inactive)"}, {"measurement": "GI50", "setting": "[15]", "result": "2.36 µM (inactive)"}, {"measurement": "GI50", "setting": "[16]", "result": "9.98 µM (inactive)"}, {"measurement": "GI50", "setting": "[17]", "result": "1.63 µM (inactive)"}, {"measurement": "GI50", "setting": "[18]", "result": "6.68 µM (inactive)"}, {"measurement": "GI50", "setting": "[19]", "result": "5.19 µM (inactive)"}, {"measurement": "GI50", "setting": "[20]", "result": "5.69 µM (inactive)"}]}]}
